Consider eleven molecules from ChEMBL document CHEMBL5291721, “A preclinical secondary pharmacology resource illuminates target-adverse drug reaction associations of marketed drugs” (Nat Commun, 2023).

One assay addresses Mu-type opioid receptor (Homo sapiens, UniProt P35372). The assay can be described thus: biochemical. In kind it is functional.
A further assay deals with T1, Estrogen receptor (Homo sapiens, UniProt P03372).
T1 sequence (P03372 whole entry): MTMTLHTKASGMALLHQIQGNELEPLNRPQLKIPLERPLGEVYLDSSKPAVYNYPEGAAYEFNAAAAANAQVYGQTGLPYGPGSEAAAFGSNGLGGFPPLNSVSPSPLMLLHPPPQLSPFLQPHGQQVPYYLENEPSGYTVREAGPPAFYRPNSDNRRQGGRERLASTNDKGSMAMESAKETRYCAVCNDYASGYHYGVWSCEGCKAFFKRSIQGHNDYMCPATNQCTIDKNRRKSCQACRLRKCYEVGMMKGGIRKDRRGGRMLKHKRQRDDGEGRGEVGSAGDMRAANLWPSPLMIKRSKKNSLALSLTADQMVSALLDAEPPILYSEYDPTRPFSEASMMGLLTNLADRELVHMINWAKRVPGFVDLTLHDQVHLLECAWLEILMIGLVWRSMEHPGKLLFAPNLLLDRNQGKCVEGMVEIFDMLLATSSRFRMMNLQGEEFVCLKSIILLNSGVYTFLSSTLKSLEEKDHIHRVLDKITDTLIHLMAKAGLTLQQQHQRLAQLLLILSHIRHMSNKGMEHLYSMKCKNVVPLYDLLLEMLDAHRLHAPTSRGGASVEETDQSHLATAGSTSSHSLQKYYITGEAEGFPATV

Another assay concerns the target Histamine H2 receptor (Homo sapiens, UniProt P25021). The class given is functional, cell-based.
Assay [1] concerns the target Beta-1 adrenergic receptor (Homo sapiens, UniProt P08588). In kind it is functional.
The target of assay [2] is T2, 5-hydroxytryptamine receptor 2A (Homo sapiens, UniProt P28223). The class given is functional, cell-based.
T2 sequence (P28223 whole entry): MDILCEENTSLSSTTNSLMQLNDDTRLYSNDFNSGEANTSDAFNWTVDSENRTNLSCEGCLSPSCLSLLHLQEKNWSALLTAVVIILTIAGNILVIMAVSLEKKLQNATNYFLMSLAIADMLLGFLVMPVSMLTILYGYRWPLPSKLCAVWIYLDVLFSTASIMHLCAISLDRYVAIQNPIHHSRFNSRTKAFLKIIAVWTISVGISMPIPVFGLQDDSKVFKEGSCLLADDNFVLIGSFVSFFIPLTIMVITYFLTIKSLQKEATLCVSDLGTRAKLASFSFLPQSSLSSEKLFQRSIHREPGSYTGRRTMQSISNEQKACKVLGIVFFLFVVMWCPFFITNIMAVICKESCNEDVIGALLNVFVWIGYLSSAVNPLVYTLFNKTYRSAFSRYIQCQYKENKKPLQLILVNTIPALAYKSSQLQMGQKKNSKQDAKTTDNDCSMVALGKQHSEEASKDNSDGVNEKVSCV
The next assay addresses Histamine H3 receptor (Homo sapiens, UniProt Q9Y5N1).
The target in assay [3] is T2, 5-hydroxytryptamine receptor 2A. In kind it is functional, cell-based. This is another data set of the same source.
A further assay has as its target D(1A) dopamine receptor (Homo sapiens, UniProt P21728). In kind it is functional, cell-based.
Assay [4] has as its target T3, Amine oxidase [flavin-containing] A (Homo sapiens, UniProt P21397).
T3 sequence (P21397 whole entry): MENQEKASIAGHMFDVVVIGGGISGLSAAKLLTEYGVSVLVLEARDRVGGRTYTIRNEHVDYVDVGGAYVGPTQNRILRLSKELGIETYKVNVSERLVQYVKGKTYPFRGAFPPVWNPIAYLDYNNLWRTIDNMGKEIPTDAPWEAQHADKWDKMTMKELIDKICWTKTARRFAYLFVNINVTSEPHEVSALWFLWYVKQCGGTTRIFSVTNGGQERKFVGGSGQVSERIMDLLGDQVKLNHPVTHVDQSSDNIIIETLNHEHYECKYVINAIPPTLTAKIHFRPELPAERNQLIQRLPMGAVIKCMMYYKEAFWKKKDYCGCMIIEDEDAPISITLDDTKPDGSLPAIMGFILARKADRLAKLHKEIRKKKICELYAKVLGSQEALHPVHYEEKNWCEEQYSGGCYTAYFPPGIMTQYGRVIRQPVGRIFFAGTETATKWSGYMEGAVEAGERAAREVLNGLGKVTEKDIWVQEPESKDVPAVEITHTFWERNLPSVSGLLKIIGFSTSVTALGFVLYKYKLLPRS
The class given is functional.

Assay [5] deals with Gamma-aminobutyric acid receptor subunit alpha-1 (Rattus norvegicus, UniProt P62813).
Chain of Gamma-aminobutyric acid receptor subunit alpha-1 (P62813 whole entry): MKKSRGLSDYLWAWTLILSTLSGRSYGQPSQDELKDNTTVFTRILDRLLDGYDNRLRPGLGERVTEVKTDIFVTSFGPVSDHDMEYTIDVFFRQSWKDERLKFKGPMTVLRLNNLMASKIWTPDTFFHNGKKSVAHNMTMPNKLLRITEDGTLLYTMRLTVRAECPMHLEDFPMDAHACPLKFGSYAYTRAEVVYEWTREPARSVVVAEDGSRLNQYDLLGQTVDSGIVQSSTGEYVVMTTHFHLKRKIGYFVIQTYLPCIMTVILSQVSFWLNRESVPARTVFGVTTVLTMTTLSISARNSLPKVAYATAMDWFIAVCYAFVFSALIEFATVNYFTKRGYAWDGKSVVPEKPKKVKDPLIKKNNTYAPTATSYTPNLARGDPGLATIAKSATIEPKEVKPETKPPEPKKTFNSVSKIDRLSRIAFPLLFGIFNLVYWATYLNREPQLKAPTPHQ
The target of assay [6] is T4, 5-hydroxytryptamine receptor 3A (Homo sapiens, UniProt P46098).
T4 sequence (P46098 whole entry): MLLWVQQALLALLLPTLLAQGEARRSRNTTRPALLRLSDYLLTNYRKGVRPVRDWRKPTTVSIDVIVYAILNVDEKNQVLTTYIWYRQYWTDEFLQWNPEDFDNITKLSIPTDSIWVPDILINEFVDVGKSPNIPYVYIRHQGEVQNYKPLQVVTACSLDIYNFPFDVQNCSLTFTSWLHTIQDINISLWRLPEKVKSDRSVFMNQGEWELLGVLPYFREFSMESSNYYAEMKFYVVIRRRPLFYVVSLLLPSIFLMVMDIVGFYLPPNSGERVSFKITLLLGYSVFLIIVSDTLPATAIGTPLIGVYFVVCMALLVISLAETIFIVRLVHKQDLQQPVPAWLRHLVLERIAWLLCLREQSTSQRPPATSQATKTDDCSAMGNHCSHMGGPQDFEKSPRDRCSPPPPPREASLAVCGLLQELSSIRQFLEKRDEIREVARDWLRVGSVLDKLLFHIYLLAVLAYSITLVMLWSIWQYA
In kind it is functional.

For assay [7], the target named is T5, Cholecystokinin receptor type A (Homo sapiens, UniProt P32238).
T5 sequence (P32238 whole entry): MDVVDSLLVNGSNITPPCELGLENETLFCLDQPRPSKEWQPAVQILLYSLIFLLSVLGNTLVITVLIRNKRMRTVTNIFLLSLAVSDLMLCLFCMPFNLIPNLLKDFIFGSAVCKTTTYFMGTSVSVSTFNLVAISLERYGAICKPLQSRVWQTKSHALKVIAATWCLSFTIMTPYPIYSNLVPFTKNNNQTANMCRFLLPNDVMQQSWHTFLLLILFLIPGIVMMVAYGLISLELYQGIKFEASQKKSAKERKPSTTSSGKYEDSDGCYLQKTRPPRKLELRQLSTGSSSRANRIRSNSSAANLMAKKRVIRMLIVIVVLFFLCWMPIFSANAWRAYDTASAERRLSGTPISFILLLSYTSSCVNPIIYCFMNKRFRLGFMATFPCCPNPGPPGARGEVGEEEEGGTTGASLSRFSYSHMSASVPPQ
Also: assay procedure not described here.

Chain of Beta-1 adrenergic receptor (P08588 whole entry): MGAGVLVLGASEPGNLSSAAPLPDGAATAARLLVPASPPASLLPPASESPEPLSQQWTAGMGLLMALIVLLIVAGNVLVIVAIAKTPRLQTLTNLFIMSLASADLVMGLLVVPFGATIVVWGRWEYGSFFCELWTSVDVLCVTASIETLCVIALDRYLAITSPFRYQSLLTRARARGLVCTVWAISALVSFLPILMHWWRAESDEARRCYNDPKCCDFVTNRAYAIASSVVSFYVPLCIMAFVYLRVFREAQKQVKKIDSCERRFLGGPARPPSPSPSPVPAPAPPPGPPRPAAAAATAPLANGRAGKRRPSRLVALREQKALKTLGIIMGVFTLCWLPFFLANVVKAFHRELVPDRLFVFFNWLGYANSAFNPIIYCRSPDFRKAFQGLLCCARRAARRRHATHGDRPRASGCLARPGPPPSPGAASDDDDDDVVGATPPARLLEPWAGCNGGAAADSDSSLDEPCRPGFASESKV
Chain of Histamine H3 receptor (Q9Y5N1 whole entry): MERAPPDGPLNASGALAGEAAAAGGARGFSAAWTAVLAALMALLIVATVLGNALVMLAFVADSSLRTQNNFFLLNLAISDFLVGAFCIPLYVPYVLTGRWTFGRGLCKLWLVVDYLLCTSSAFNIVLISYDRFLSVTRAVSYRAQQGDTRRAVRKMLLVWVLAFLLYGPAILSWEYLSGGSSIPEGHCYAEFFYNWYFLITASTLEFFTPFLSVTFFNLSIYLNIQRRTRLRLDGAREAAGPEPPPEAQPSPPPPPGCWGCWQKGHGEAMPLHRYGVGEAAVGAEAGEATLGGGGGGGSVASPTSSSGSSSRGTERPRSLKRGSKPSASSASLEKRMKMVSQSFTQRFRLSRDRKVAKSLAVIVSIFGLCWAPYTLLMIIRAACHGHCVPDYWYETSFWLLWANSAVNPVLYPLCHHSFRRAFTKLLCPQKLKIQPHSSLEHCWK
Chain of Histamine H2 receptor (P25021 whole entry): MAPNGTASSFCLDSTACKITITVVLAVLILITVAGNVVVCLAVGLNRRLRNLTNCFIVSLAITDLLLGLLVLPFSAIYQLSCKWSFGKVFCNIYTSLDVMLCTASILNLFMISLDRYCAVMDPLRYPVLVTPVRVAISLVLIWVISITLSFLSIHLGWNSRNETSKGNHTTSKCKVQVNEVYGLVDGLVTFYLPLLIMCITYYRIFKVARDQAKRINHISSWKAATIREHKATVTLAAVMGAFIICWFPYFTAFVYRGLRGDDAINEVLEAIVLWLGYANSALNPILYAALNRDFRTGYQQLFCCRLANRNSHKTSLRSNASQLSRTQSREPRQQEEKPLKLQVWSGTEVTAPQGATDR
Chain of D(1A) dopamine receptor (P21728 whole entry): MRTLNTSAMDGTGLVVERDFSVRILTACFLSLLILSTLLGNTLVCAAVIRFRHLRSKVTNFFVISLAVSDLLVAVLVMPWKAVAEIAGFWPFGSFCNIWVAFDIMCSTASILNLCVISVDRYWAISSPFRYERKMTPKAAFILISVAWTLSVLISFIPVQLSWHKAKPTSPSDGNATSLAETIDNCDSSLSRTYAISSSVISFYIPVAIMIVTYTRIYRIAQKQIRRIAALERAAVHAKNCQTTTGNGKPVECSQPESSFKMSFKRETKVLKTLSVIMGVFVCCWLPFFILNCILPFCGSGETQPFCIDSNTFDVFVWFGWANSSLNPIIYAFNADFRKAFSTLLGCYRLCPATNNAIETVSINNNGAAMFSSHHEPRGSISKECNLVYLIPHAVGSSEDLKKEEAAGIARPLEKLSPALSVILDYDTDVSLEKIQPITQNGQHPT
Chain of Mu-type opioid receptor (P35372 whole entry): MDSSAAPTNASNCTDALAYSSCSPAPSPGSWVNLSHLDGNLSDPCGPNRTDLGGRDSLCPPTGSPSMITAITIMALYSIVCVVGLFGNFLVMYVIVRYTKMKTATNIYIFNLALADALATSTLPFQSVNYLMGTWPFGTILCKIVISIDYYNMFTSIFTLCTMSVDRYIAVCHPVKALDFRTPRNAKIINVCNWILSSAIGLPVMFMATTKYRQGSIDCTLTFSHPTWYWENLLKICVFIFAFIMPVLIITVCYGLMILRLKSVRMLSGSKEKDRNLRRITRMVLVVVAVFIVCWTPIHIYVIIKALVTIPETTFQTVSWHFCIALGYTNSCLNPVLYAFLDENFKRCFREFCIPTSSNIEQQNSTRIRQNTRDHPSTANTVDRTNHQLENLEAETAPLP

For `CC(C(=O)O)c1ccc(N2Cc3ccccc3C2=O)cc1` (configuration not stated) [INDOPROFEN], the AC50 (on Mu-type opioid receptor; at Estrogen receptor; on Histamine H2 receptor; in assay [1]; in [2]; at Histamine H3 receptor) was more than 30 µM in each case. Further, the AC50 in assay [3] was more than 30 µM; at D(1A) dopamine receptor, 0.51 µM; in assay [4], more than 30 µM; in assay [5] it was more than 30 µM; in [6], more than 30 µM; in assay [7] it was more than 30 µM.
Consider `O=C(O)CCCCCCNC1c2ccccc2CCc2ccccc21` [AMINEPTINE], for which the AC50 (on Mu-type opioid receptor; on Estrogen receptor; at Histamine H2 receptor; in assay [1]; in assay [2]; at Histamine H3 receptor) was more than 30 µM in each case. Also, the AC50 (in [3]; on D(1A) dopamine receptor; in assay [4]; in assay [5]; in assay [6]; in assay [7]) was more than 30 µM each time.
On to `CN1C(=O)C(O)N=C(c2ccccc2Cl)c2cc(Cl)ccc21` (configuration not stated) [LORMETAZEPAM], for which the AC50 (at Mu-type opioid receptor; at Estrogen receptor; at Histamine H2 receptor; in assay [1]; in [2]; on Histamine H3 receptor) was more than 30 µM in each case. In addition, the AC50 (in [3]; on D(1A) dopamine receptor; in assay [4]; in assay [5]; in [6]; in assay [7]) was more than 30 µM each time.
Take `CCOC(=O)[C@H](CCc1ccccc1)N[C@@H](C)C(=O)N1C(=O)N(C)C[C@H]1C(=O)O`: the AC50 (on Mu-type opioid receptor; at Estrogen receptor; on Histamine H2 receptor; in assay [1]; in assay [2]; on Histamine H3 receptor) was more than 30 µM throughout. Besides, the AC50 (in assay [3]; on D(1A) dopamine receptor; in assay [4]; in [5]; in assay [6]; in assay [7]) was more than 30 µM in each case.
Consider `CC(CC(c1ccccc1)c1ccccc1)NC(C)(C)C` (configuration not stated) [TERODILINE], for which the AC50 (at Mu-type opioid receptor; at Estrogen receptor; on Histamine H2 receptor; in assay [1]; in assay [2]; at Histamine H3 receptor) was more than 30 µM throughout. The AC50 (in [3]; at D(1A) dopamine receptor; in [4]; in assay [5]; in assay [6]; in assay [7]) was more than 30 µM in each case.
As for `C=CCN1CCCC1CNC(=O)c1cc(S(N)(=O)=O)cc(OC)c1OC` (configuration not stated) [VERALIPRIDE], the AC50 at Mu-type opioid receptor was more than 30 µM; at Estrogen receptor it was more than 30 µM; on Histamine H2 receptor, more than 30 µM; in assay [1], more than 30 µM; in assay [2], 24 µM; on Histamine H3 receptor, 23 µM. Further, the AC50 (in [3]; on D(1A) dopamine receptor; in assay [4]; in assay [5]; in assay [6]; in assay [7]) was more than 30 µM each time.
As for `CC(C)OC(=O)CCC/C=C\C[C@@H]1[C@@H](CC[C@@H](O)CCc2ccccc2)[C@H](O)C[C@@H]1O` [LATANOPROST], the AC50 (on Mu-type opioid receptor; at Estrogen receptor; at Histamine H2 receptor; in assay [1]; in assay [2]; at Histamine H3 receptor) was more than 30 µM each time. Further, the AC50 (in assay [3]; at D(1A) dopamine receptor; in assay [4]; in assay [5]; in assay [6]; in assay [7]) was more than 30 µM each time.
On to `Nc1nc(/C(=C/CC(=O)O)C(=O)N[C@@H]2C(=O)N3C(C(=O)O)=CCS[C@H]23)cs1` [CEFTIBUTEN], for which the AC50 (on Mu-type opioid receptor; on Estrogen receptor; at Histamine H2 receptor; in assay [1]; in assay [2]; at Histamine H3 receptor) was more than 30 µM in each case. The AC50 (in assay [3]; at D(1A) dopamine receptor; in assay [4]; in assay [5]; in assay [6]; in [7]) was more than 30 µM in each case.
Take `CC(=O)OCC(=O)[C@@]12N=C(C)O[C@@H]1C[C@H]1[C@@H]3CCC4=CC(=O)C=C[C@]4(C)[C@H]3[C@@H](O)C[C@@]12C` [DEFLAZACORT]: the AC50 (on Mu-type opioid receptor; on Estrogen receptor; at Histamine H2 receptor; in assay [1]; in assay [2]; at Histamine H3 receptor) was more than 30 µM each time. In addition, the AC50 (in assay [3]; on D(1A) dopamine receptor; in assay [4]; in assay [5]; in assay [6]; in assay [7]) was more than 30 µM throughout.
`Cc1ccc(-n2nccn2)c(C(=O)N2CCN(c3nc4cc(Cl)ccc4o3)CC[C@H]2C)c1` [SUVOREXANT]: the AC50 (on Mu-type opioid receptor; at Estrogen receptor; on Histamine H2 receptor; in assay [1]; in assay [2]; at Histamine H3 receptor) was more than 30 µM throughout. The AC50 (in [3]; at D(1A) dopamine receptor; in [4]; in assay [5]; in [6]; in assay [7]) was more than 30 µM in each case.
For the molecule `COc1cc2c(N)nc(N3CCN(C(=O)OCC(C)(C)O)CC3)nc2c(OC)c1OC` [TRIMAZOSIN], the AC50 (on Mu-type opioid receptor; on Estrogen receptor; at Histamine H2 receptor; in assay [1]; in [2]; on Histamine H3 receptor) was more than 30 µM in each case. Moreover, the AC50 (in assay [3]; on D(1A) dopamine receptor; in [4]; in assay [5]; in assay [6]; in assay [7]) was more than 30 µM throughout.

What is called AC50 is the midpoint of the concentration-response curve, whichever way the signal moves. A lower AC50 goes with activity at low concentration.
